According to ChEMBL document CHEMBL4613212, “Insights of synthetic analogues of anti-leprosy agents” (Bioorg Med Chem, 2019):
In brackets after ≈: the same amount, converted by molar mass.

Assays:
Plasmodium berghei = assay: Antimalarial activity against Plasmodium berghei infected in albino mouse assessed survival against infection at 400 mg/kg, sc administered as single dose; type: functional
Mycobacterium leprae [1] = assay: Anti-leprotic activity against Mycobacterium leprae infected in albino mouse assessed survival against infection at 400 mg/kg, sc administered 58 days post-infection and subsequent compound dosing at 200 mg/kg at 0.5, 1 or 2 months interval; type: functional
[2] = Drug excretion in rat urine at 400 mg/kg, sc administered as single dose measured after 30 days; type: ADME, organism-based; details: read-out: Drug excretion
[3] = Half life in rat at 400 mg/kg, sc administered as single dose; type: ADME, organism-based; details: in vivo
[4] = Drug concentration in rat blood at 400 mg/kg, sc administered as single dose; type: ADME, organism-based; details: in vivo
Rattus norvegicus = assay: Effect of metallo-protein haemoglobin in rat assessed as peak methemoglobin level at 400 mg/kg, sc administered as single dose; type: ADME, organism-based; details: in vivo
Mycobacterium leprae [5] = assay: Anti-leprotic activity against Mycobacterium leprae infected in CBA mouse assessed as number of Mycobacterium leprae in paw pads at 10 mg/kg administrated 5 times a week and measured 7.5 months post infection (reference value: 3.91 +/- 0.33 10^5); type: functional
Mycobacterium leprae [6] = assay: Anti-leprotic activity against Mycobacterium leprae infected in CBA mouse assessed as number of Mycobacterium leprae in paw pads at 30 mg/kg administrated 5 times a week and measured 7.5 months post infection (reference value: 3.91 +/- 0.33 10^5); type: functional
[7] = Inhibition of Mycobacterium smegmatis ATCC 607 dihydrofolic reductase; parameters: species or system Mycolicibacterium smegmatis
[8] = tested on: Mycolicibacterium smegmatis; assay: Inhibition of Mycobacterium smegmatis ATCC 607 dihydrofolic reductase assessed as ratio of Km to Ki
[9] = tested on: Mycolicibacterium smegmatis; assay: Antimicrobial activity against Mycobacterium smegmatis ATCC 607; type: functional; details: Mycolicibacterium smegmatis, ATCC 607; read-out: MIC
[10] = tested on: Mycolicibacterium smegmatis; assay: Antimicrobial activity against Mycobacterium smegmatis incubated for 30 to 32 hrs under shaking condition relative to control; type: functional
[11] = tested on: Mycolicibacterium smegmatis; assay: Antimicrobial activity against Mycobacterium smegmatis incubated for 30 to 32 hrs under shaking condition; type: functional
Monocyte = assay: Antiinflammatory activity in human monocytes assessed as inhibition of LPS-induced TNFaplha production at 50 uM preincubated for 15 mins followed by LPS addition and measured after 4 hrs by ELISA relative to control; type: functional
[12] = Cytotoxicity against LPS-induced human monocytes assessed as cell viability at 50 uM by tryphan blue staining based assay relative to control; parameters: species or system Monocyte; details: read-out: Activity
Staphylococcus aureus = assay: Antimicrobial activity against Staphylococcus aureus assessed as zone of inhibition incubated for 20 hrs by agar well diffusion assay; type: functional
Escherichia coli = assay: Antimicrobial activity against Escherichia coli assessed as zone of inhibition incubated for 20 hrs by agar well diffusion assay; type: functional
[13] = tested on: Mycobacterium tuberculosis; assay: Antitubercular activity against Mycobacterium tuberculosis H37Rv ATCC 27294 assessed as growth inhibition at 6.25 ug/ml by microplate alamar blue assay relative to control; type: functional
[14] = Selectivity index, ratio of IC50 for African green monkey Vero cells to MIC for antitubercular activity against Mycobacterium tuberculosis H37Rv; type: toxicity; details: Vero cells, read-out: Selectivity Index
[15] = tested on: Mycobacterium tuberculosis; assay: Antitubercular activity against Mycobacterium tuberculosis H37Rv ATCC 27294 assessed as inhibition of [3H]-thymidine incorporation relative to control; type: functional
[16] = tested on: Mycolicibacterium smegmatis; assay: Antimicrobial activity against Mycobacterium smegmatis incubated for 24 hrs by broth microdilution assay; type: functional
Mycolicibacterium aurum = assay: Antimicrobial activity against Mycobacterium aurum incubated for 24 hrs by broth microdilution assay; type: functional
Mycolicibacterium vaccae = assay: Antimicrobial activity against Mycobacterium vaccae incubated for 24 hrs by broth microdilution assay; type: functional
[17] = tested on: Mycolicibacterium fortuitum; assay: Antimicrobial activity against Mycobacterium fortuitum incubated for 24 hrs by broth microdilution assay; type: functional
Mycobacterium leprae [18] = assay: Anti-leprotic activity against Mycobacterium leprae infected in 538 CBA mouse assessed as number of Mycobacterium leprae in paw pads at 2 mg/kg administrated via gastric tube 5 times a week and measured 7 months post infection; type: functional
Mycobacterium leprae [19] = assay: Anti-leprotic activity against Mycobacterium leprae infected in 538 CBA mouse assessed as number of Mycobacterium leprae in paw pads at 6 mg/kg administrated via gastric tube 5 times a week and measured 7 months post infection; type: functional
Mycobacterium leprae [20] = assay: (§1) Inhibition of PGL1 synthesis in Mycobacterium leprae infected Swiss Webster mouse macrophages assessed as decrease in [U-14C]PA incorporation at 2 uM preincubated for 4 days post infection followed by [U-14C]PA addition and measured after 7 days by liquid scintillation counter analysis relative to control; type: functional
Mycobacterium leprae [21] = assay: as §1, with “0.2” for “2”; type: functional
[22] = tested on: Mycolicibacterium smegmatis; assay: Antimycobacterial activity against Mycobacterium smegmatis mc2 155 incubated for 2 days by spectrophotometric based assay; type: functional; details: MC2 155, 48 h

CC(=O)Nc1ccc(S(=O)(=O)c2ccc(NC(C)=O)cc2)cc1 [ACEDAPSONE]
Survival (Plasmodium berghei): 12 weeks
Survival (Mycobacterium leprae [1]): >8 weeks
dose excreted at 720 h [2]: 7%
half-life [3]: > 200 days
Drug uptake [4]: 0.2 µg/mL
Activity (Rattus norvegicus): 0 g/dL

CN(C)C(=S)Sc1c(C#N)cc([N+](=O)[O-])cc1[N+](=O)[O-]
Activity (Mycobacterium leprae [5]): 0.83 ×10⁵ No_unit
Activity (Mycobacterium leprae [6]): 0.77 ×10⁵ No_unit

CN(Cc1cnc2nc(N)nc(N)c2n1)c1ccc(C(=O)N[C@@H](CCC(=O)O)C(=O)O)cc1 [METHOTREXATE]
Ki [7]: 0.35 nM
Ratio [8]: 11700
MIC [9]: 2200 µM (≈ 1000 µg/mL)

CCn1cc(C(=O)N/N=C\c2ccc(C)cc2)c(=O)c2cc(F)c(N3CCN(C)CC3)cc21
Activity [10]: >30%
MIC [11]: 42.5 µM (≈ 19.1 µg/mL)

CCC1(N2C(=O)c3ccccc3C2=O)C(=O)NC(=O)N(C2CCCCC2)C1=O (stereo not drawn)
inhibition at 50 µM (Monocyte): < 10%
viability at 50 µM [12]: 87%

C[C@@H](O)[C@H]1C(=O)N2C(C(=O)O)=C(SCCNC=O)C[C@H]12
diameter of the inhibition zone (DIZ) (Staphylococcus aureus): 29 mm
diameter of the inhibition zone (DIZ) (Escherichia coli): 30 mm

CC(=O)Nc1ccc(S(=O)(=O)c2ccc(NC(C)=O)c(C)c2)cc1
Survival (Plasmodium berghei): 9 weeks
Survival (Mycobacterium leprae [1]): >8 weeks
dose excreted at 720 h [2]: 31%
half-life [3]: 35 days
Drug uptake [4]: 0.7 µg/mL
Activity (Rattus norvegicus): 1 g/dL

c1ccc(Cn2cnc3c(-c4ccco4)ncnc32)cc1 [9-BENZYL-6-(FURAN-2-YL)-9H-PURINE]
inhibition at 6.25 µg/mL [13]: > 90%
selectivity ratio [14]: 2.7
inhibition (INH) [15]: 59%

O=C1c2c(F)c(F)c(F)c(F)c2C(=O)N1c1cn(-c2ccccc2)c(=O)[nH]c1=O
inhibition at 50 µM (Monocyte): < 10%
viability at 50 µM [12]: 95%

O=C1c2c(F)c(F)c(F)c(F)c2C(=O)N1c1ccc(F)c(F)c1
inhibition at 50 µM (Monocyte): < 10%
viability at 50 µM [12]: 74%

CN(C)c1ncnc(SC(=S)N2CCCC2)c1[N+](=O)[O-]
MIC [16]: 3.12 µg/mL (≈ 9.96 µM)
MIC (Mycolicibacterium aurum): 3.12 µg/mL (≈ 9.96 µM)
MIC (Mycolicibacterium vaccae): 1.56 µg/mL (≈ 4.98 µM)
MIC [17]: 1.56 µg/mL (≈ 4.98 µM)
Activity (Mycobacterium leprae [18]): 4.43 ×10⁷ No_unit
Activity (Mycobacterium leprae [19]): 2.14 ×10⁷ No_unit

CC(C)/N=c1\cc2n(-c3ccc(Cl)cc3)c3ccccc3nc-2cc1Nc1ccc(Cl)cc1 [CLOFAZIMINE]
inhibition at 2 µM (Mycobacterium leprae [20]): 94%
inhibition at 0.2 µM (Mycobacterium leprae [21]): 70%

CCCCCCCCC(COC1CCCC1)C(=O)O (stereo not drawn)
MIC99 [22]: 3600 µM (≈ 973 µg/mL)

C[C@@H](O)[C@H]1C(=N)N2C(C(=O)O)=C(SCCNC=N)C[C@H]12
diameter of the inhibition zone (DIZ) (Staphylococcus aureus): 25 mm
diameter of the inhibition zone (DIZ) (Escherichia coli): 27 mm

CC(C)Cc1cnc2nc(N)nc(N)c2n1
Ki [7]: 0.9 nM
Ratio [8]: 4560
MIC [9]: 688 µM (≈ 150 µg/mL)

O=C1c2ccccc2C(=O)N1c1ccc(S(=O)(=O)Nc2ccncn2)cc1
MIC99 [22]: 2300 µM (≈ 875 µg/mL)

CC(C)CCc1cnc2nc(N)nc(N)c2n1
Ki [7]: 1 nM
Ratio [8]: 4100
MIC [9]: 775 µM (≈ 180 µg/mL)

C[C@@H](O)[C@H]1C(=O)N2C(C(=O)O)=C(SCCNC=N)C[C@H]12 [IMIPENEM ANHYDROUS]
diameter of the inhibition zone (DIZ) (Staphylococcus aureus): 31 mm
diameter of the inhibition zone (DIZ) (Escherichia coli): 35 mm

Clc1nc(-c2cccs2)c2ncn(Cc3ccccc3)c2n1
inhibition at 6.25 µg/mL [13]: > 90%
selectivity ratio [14]: > 6.4

CCC1(N2C(=O)c3c(F)c(F)c(F)c(F)c3C2=O)C(=O)NC(=O)N(c2ccccc2)C1=O (stereo not drawn)
inhibition at 50 µM (Monocyte): 16%
viability at 50 µM [12]: 68%

COc1cc(Cc2cnc(N)nc2N)cc(OC)c1OC [TRIMETHOPRIM]
Ki [7]: 70 nM
Ratio [8]: 54.6
MIC [9]: 34 µM (≈ 9.87 µg/mL)

COc1cc(CCc2cnc3nc(N)nc(N)c3n2)cc(OC)c1OC
Ki [7]: 18 nM
Ratio [8]: 2050
MIC [9]: > 281 µM

COc1cc(Sc2cnc(N)nc2N)cc(OC)c1Br
Activity (Mycobacterium leprae [18]): 0.66 ×10⁷ No_unit
Activity (Mycobacterium leprae [19]): 0.02 ×10⁷ No_unit

N#Cc1cc([N+](=O)[O-])cnc1SC(=S)N1CCCC1
MIC [16]: 3.12 µg/mL (≈ 10.6 µM)
MIC (Mycolicibacterium aurum): 1.56 µg/mL (≈ 5.3 µM)
MIC (Mycolicibacterium vaccae): 1.56 µg/mL (≈ 5.3 µM)
MIC [17]: 1.56 µg/mL (≈ 5.3 µM)
Activity (Mycobacterium leprae [18]): 0.56 ×10⁷ No_unit
Activity (Mycobacterium leprae [19]): 0.28 ×10⁷ No_unit
